Source: paper PMC2765246 (Journal of medicinal chemistry, 2008)

Experiments:
Plasmodium falciparum = conditions: P. falciparum growth inhibition, cited from earlier work; for IC50: read-out: IC50 (cell)
[1] = target: T1, P. vivax FPPS (farnesyl diphosphate synthase) (Plasmodium vivax, UniProt A5K4U6); test: P. vivax FPPS inhibition, continuous spectrophotometric phosphate release assay; type: biochemical; conditions: pIC50 (enzyme)
T1 sequence (A5K4U6 1-375): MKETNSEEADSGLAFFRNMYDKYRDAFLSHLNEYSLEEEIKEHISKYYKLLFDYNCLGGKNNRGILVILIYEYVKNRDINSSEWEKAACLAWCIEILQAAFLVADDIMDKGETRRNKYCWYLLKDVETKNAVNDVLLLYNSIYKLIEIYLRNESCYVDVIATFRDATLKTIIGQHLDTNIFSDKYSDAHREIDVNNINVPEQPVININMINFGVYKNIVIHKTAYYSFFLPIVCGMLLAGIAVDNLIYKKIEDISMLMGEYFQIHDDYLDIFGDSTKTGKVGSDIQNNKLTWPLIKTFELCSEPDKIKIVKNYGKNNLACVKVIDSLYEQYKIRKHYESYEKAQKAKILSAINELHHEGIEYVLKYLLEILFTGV

[2] = FPPS from Plasmodium vivax, pIC50 = −log10 IC50

Row | Structure (SMILES) | pIC50 (cell) (Plasmodium falciparum) | IC50 [1, 2] [nM] | further results
1 | CCCCCCC(O)(P(=O)(O)O)P(=O)(O)O [Compound 1] | 5.9 |  | 
2 | CCCCCCCCCCCCCC(O)(P(=O)(O)O)P(=O)(O)O [Compound 2] | 5.7 |  | 
3 | CN(CCCCc1ccccc1)CCC(O)(P(=O)(O)O)P(=O)(O)O [Compound 3] | 5.5 |  | IC50 (Plasmodium falciparum): 2900 nM
4 | CCCCCCCCCC(O)(P(=O)(O)O)P(=O)(O)O [Compound 4] |  | 794 | 
5 | O=P(O)(O)C(O)(Cc1cccc(C(F)(F)F)c1)P(=O)(O)O [Compound 5] | 5.4 | 631 | 
6 | O=P(O)(O)C(O)(Cc1cccc(Cl)c1)P(=O)(O)O [Compound 6] | 5.4 |  | 
7 | O=P(O)(O)C(O)(Cc1cccc(F)c1)P(=O)(O)O [Compound 7] | 5.2 |  | 
8 | O=P(O)(O)C(Nc1ccc(Cl)cn1)P(=O)(O)O [Compound 8] | 5.0 |  | IC50 (Plasmodium falciparum): 11000 nM
9 | O=P(O)(O)C(O)(Cc1ccccc1)P(=O)(O)O [Compound 9] | 5.0 |  | 
10 | O=P(O)(O)C(O)(Cc1cccc(Br)c1)P(=O)(O)O [Compound 11] |  | 794 | 
11 | CN(CCCc1ccccc1)CCC(O)(P(=O)(O)O)P(=O)(O)O [Compound 13] | 4.6 |  | IC50 (Plasmodium falciparum): 23000 nM
12 | O=P(O)(O)C(Nc1nccs1)P(=O)(O)O [Compound 19] |  | 794 | 
13 | O=P(O)(O)C(O)(CSc1ccncc1)P(=O)(O)O [Compound 22] | 3.8 |  | 
14 | CN(Cc1ccccc1)C(P(=O)(O)O)P(=O)(O)O [Compound 24] | 3.7 | 794 | 
15 | Cc1ccc(C)c(COc2ccc(C)nc2NC(P(=O)(O)O)P(=O)(O)O)c1 [Compound 25] | 3.7 |  | 
16 | O=P(O)(O)C(O)(Cc1ccccn1)P(=O)(O)O [Compound 26] | 3.7 |  | IC50 [1]: 1000 nM
